Laboratory results: patent publication US20240226310A1, “Lipid Nanoparticle Therapeutics that Evade the Immune Response” (The Trustees of the University of Pennsylvania, priority 2021, published 2024)

System: pro-inflammatory cytokines
Experiment: Pro-inflammatory cytokines in systemic mouse model of inflammation (IV-LPS)
Type: in vivo, mice
[1] = removal of macrophages, LPS-treated mice which received LNP-mRNAs

## O=P(O)(O)C(Cl)(Cl)P(=O)(O)O [Clodronate]
IV treatment, LPS model of systemic inflammation
  systemic pro-inflammatory cytokines/markers: reduces systemic pro-inflammatory markers
[1]
  IL-6 in blood: significantly lowered
  MIP-2 in liver homogenate: significantly lowered
